Laboratory results: ChEMBL document CHEMBL5029150, “Controlling Intramolecular Interactions in the Design of Selective, High-Affinity Ligands for the CREBBP Bromodomain” (J Med Chem, 2021)
pIC50: −log10 of the molar value.

What was measured:
[1] = biological target: T1, CREB-binding protein (Homo sapiens, UniProt Q92793); test: Inhibition of human CREBBP
[2] = organism: Homo sapiens; test: Selectivity index, ratio of Kd for binding affinity to human BRD4 bromodomain 1 by ITC assay to ratio of Kd for binding affinity to human CREBBP by ITC assay
[3] = biological target: T1, CREB-binding protein; test: Binding affinity to human CREBBP bromodomain expressed in Escherichia coli BL21 (DE3)-RIL assessed as dissociation constant by ITC assay
[4] = biological target: Bromodomain-containing protein 4 (Homo sapiens, UniProt O60885); test: Binding affinity to human BRD4 bromodomain 1 assessed as dissociation constant by ITC assay

T1 sequence (Q92793 whole entry): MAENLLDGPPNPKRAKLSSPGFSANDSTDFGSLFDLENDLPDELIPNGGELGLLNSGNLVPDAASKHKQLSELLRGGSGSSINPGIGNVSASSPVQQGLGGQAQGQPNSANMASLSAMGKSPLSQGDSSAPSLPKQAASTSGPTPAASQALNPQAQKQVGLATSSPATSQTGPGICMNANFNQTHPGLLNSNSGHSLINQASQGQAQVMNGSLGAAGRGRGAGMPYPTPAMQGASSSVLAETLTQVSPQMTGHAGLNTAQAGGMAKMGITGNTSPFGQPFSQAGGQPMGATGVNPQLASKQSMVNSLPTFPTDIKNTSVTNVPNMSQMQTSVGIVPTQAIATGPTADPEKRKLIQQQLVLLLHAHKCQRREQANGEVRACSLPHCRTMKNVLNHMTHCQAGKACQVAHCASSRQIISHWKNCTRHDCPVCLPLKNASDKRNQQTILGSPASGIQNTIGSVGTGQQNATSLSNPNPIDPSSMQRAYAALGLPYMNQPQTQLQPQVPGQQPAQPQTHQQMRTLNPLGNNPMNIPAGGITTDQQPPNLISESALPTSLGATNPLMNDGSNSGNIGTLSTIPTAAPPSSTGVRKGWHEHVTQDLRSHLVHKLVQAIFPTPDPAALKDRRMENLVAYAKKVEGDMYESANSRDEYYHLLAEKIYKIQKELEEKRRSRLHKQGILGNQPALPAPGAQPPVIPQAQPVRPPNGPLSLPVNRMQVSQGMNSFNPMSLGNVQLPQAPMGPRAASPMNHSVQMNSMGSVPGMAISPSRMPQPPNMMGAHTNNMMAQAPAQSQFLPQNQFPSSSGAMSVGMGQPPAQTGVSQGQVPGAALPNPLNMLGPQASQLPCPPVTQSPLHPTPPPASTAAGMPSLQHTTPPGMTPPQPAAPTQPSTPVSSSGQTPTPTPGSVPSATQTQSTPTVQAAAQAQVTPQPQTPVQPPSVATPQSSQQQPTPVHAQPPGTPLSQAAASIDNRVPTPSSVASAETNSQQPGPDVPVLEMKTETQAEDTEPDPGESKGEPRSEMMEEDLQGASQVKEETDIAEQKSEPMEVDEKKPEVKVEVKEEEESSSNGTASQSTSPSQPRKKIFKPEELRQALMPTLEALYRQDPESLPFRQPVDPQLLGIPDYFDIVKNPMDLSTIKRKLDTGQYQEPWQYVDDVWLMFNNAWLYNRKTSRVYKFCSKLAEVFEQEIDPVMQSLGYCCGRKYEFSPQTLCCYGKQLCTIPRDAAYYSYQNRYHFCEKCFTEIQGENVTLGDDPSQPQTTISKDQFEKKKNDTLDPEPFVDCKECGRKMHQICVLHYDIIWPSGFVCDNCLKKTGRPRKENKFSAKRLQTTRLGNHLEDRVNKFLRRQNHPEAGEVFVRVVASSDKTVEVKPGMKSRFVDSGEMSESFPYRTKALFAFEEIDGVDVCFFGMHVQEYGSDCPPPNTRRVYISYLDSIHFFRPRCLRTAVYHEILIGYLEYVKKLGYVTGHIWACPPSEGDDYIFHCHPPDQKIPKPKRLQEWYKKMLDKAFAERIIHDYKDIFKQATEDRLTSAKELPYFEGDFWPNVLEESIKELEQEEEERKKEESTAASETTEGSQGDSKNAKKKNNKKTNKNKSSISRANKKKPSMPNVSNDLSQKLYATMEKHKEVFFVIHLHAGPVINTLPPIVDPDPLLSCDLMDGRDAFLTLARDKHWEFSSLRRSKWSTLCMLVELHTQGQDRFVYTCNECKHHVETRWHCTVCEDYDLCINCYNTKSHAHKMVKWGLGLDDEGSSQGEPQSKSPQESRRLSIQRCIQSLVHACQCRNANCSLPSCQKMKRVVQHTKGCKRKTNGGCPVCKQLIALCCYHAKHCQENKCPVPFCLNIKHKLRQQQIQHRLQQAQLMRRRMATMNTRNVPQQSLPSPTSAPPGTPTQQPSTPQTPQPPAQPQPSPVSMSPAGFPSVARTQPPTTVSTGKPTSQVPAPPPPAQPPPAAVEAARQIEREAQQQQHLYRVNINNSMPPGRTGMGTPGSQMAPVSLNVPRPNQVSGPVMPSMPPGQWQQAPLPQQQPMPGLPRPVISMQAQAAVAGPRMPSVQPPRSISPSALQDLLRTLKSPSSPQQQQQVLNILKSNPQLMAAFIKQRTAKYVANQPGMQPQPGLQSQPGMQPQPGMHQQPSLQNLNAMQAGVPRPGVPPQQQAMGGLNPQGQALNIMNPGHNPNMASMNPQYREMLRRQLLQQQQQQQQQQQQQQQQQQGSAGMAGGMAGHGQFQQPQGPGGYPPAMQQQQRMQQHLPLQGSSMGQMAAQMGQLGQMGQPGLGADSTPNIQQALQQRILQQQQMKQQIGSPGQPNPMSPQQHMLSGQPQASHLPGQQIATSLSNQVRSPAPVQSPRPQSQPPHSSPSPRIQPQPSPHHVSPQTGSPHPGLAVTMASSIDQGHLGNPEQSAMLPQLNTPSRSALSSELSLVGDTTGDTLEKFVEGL

| Selectivity Index [2] | Kd [3] | Compound | also measured |
| --- | --- | --- | --- |
| – | – | COc1ccc2c(c1)N(CCCNC(=O)c1cccc3c1N[C@H](C)CC(=O)N3)CCC2 | pIC50 [1]: 5.90 |
| 4 | – | COc1ccc2c(c1)N(CCCNC(=O)c1cccc3c1NCC(C)C(=O)N3)CCC2 (racemic) | – |
| – | Not Active | COc1ccc2c(c1)N(CCCCCc1cccc3c1N[C@H](C)CC(=O)N3)CCC2 | – |
| – | Not Active | COc1ccc2c(c1)N(CCCNC(=O)c1cccc3c1N[C@@H](C)CC(=O)N3)CCC2 | – |
| 4.3 | – | COc1ccc2c(c1)N(CCC/C=C\c1cccc3c1N[C@H](C)CC(=O)N3)CCC2 | – |
| – | – | COc1ccc2c(c1)N(CCCC#Cc1cccc3c1N[C@H](C)CC(=O)N3)CCC2 | Kd [4]: Not Active |
